Experimental data taken from patent US20240317689A1, “POTASSIUM CHANNEL MODULATOR, COMPOSITION AND APPLICATION” (NEUSHEN THERAPEUTICS (SHANGHAI) CO., LTD, priority 2021, published 2024).

Tests used:
[1] = target: T1, KCNQ2/3 potassium ion channel (Homo sapiens, UniProt O43525+O43526); assay: KCNQ2/3 potassium ion channel activation assay (whole-cell patch clamp, hKCNQ-CHO cells); format: cell-based; details: read-out: Enhancment % (current enhancement multiple); for activation at 0.05 µM: test concentration 0.05 μM; for activation at 3 µM: test concentration 3 μM
T1 construct: expressed in transfected cells; host or cells: CHO cells (hKCNQ-CHO)
Method: Example 64: KCNQ2/3 Potassium Ion Channel Activation Assay
(§1) hKCNQ-CHO cells were cultured at 37° C. in a humidified environment of 5% CO2.
• 2.1. Extracellular fluid (mM): NaCl 145, KCl 4, CaCl2 2, MgCl2 1, Glucose 10, HEPES 10. The pH value of the extracellular fluid was adjusted to 7.4 with NaOH, and the osmotic pressure was adjusted to about 295 mOsm. • 2.2. Intracellular fluid (mM (mmol/L)): KOH 31.25, KCl 120, EGTA 10, MgCl2 1.75, CaCl2 5.374, HEPES 10, Na-ATP 4. The pH value of the intracellular fluid was adjusted to 7.4 with HCl, and the osmotic pressure was adjusted to about 285 mOsm. • 2.3. The extracellular fluid should be prepared once a week, and the intracellular fluid should be stored at −20° C. after preparation.
(§2) The model positive reference compound Retigabine (RTG) was dissolved with 100% DMSO and configured as a 10 mM working solution. The test compounds were dissolved with 100% DMSO and configured as a 10 mM working solution. The final concentration of DMSO in the test solution should be less than 0.3%.
(§3) Whole-cell patch clamp was performed at room temperature. The electrical signals recorded with the EPC 10 USB amplifier (HEKA Elektronik, Germany) were filtered by a 3 kHz low-pass filter, and finally recorded in PatchMaster 2×90.5 software (HEKA Elektronik, Germany). At this step, the quality control standard was that the cell high-resistance sealing was greater than 500 MOhms, and the detection current was greater than 0.4 nA.
(§4) The recording electrodes were pulled out and polished with a vertical puller (NARISHIGE PC-10, Japan) using a borosilicate glass capillary (GC150tF-10, Harvard Apparatus Co., UK). At this step, the quality control standard was that the electrode resistance was between 2 MΩ and 5 MΩ.
(§5) During the recording process of the whole-cell patch clamp, a continuous perfusion system (BT100-2J, LongerPump, China) was used to continuously perfuse the extracellular fluid. The perfusion system was installed on the stage of an upright microscope (FN-S2N, Nikon, Japan), and the perfusion head was manually positioned under the microscope.
The voltage command for detecting the amplitude of hKCNQ current was as follows: the cell stepped from the clamping potential of −80 mV to −30 mV, and held for 1500 ms; and then the clamping voltage was lowered to −120 my and held for 500 ms; finally, the voltage returned to the clamping potential of −80 mV. The detection voltage command was repeated every 15,000 milliseconds, and the command was continuously executed during the compound test. The quality control standard for compound action stability was the current amplitude under 5 consecutive voltage commands, and the coefficient of variation of the current amplitude was <5%.
Data analysis was performed using PatchMaster 2×90.5 software (HEKA Elektronik, Germany) and Excel 2013 (Microsoft, USA) software. For each cell's patch clamp recording, the amplitude of the hKCNQ channel current (Itest) corresponding to the test compound concentration should be obtained. The enhanced channel current was obtained by subtracting the cell's original channel current (Icontrol) from Itest and dividing by Icontrol to obtain the current enhancement multiple. That is, the current enhancement multiple (Enhancment %)=(Itest −Icontrol)/Icontrol[…].

KCNQ2/3 = target: T2, KCNQ2/3 (Homo sapiens, UniProt O43525+O43526); assay: Half-maximal activation voltage left shift assay (whole-cell patch clamp, hKCNQ-CHO cells); format: cell-based
T2 construct: expressed in transfected cells; host or cells: CHO cells (hKCNQ-CHO)
Method: Example 65: Half-Maximal Activation Voltage Left Shift Assay
as §1
• a) Extracellular fluid (mM): NaCl 145, KCl 4, CaCl2 2, MgCl2 1, Glucose 10, HEPES 10. The pH value of the extracellular fluid was adjusted to 7.4 with NaOH, and the osmotic pressure was adjusted to about 295 mOsm. • b) Intracellular fluid (mM): KOH 31.25, KCl 120, EGTA 10, MgCl2 1.75, CaCl2 5.374, HEPES 10, Na-ATP 4. The pH value of the intracellular fluid was adjusted to 7.4 with HCl, and the osmotic pressure was adjusted to about 285 mOsm. • c) The extracellular fluid should be prepared once a week, and the intracellular fluid should be aliquoted and stored at −20° C. after preparation.
as §2, §3, §4, §5
The voltage command for detecting the amplitude of hKCNQ current was as follows: the cell was clamped from a potential of −80 mV, stepped to −120 mV, and then clamped continuously at increasing voltages of 10 mV per sweep until +60 mV, held for 1500 ms; and then the clamping voltage was lowered to −120 my and held for 500 ms; finally, the voltage returned to the clamping potential of −80 mV. The detection voltage command was repeated every 15,000 milliseconds, and the command was continuously executed during the compound test. The half-maximal voltage of the cell's hKCNQ was obtained by nonlinear fitting of the current amplitude at different clamping potentials (−120 mV to +60 mV).
Data analysis was performed using PatchMaster 2×90.5 software (HEKA Elektronik, Germany) and Excel 2013 (Microsoft, USA) software. For each cell's patch clamp recording, the half-maximal voltage (V½-test) of hKCNQ corresponding to the test compound concentration should be obtained. The left-shifted half-maximal voltage value ΔV½ (V1/2 Shift (mV)) was obtained by subtracting the half-maximal voltage of hKCNQ before compound action (V½-control) from V½-test.

[2] = test system: MES-induced epilepsy in mice; assay: MES mouse epilepsy model; format: in vivo; details: 5 mpk, electrical stimulation 30 minutes after administration
Method: Example 67: MES Mouse Epilepsy Model
• 1. The mice (10 mice per group) were transferred to the operating room to adapt to the environment 30 minutes before the experiment. • 2. The mice were administered the test compounds or positive drug (Valproate) at a specific time point. 30 minutes after the administration of Valproate or 30 minutes after the administration of the test compounds, electrical stimulation was given with ear electrodes. The stimulation parameters were a square wave with a total duration of 0.8 seconds, a frequency of 50 Hz, and an amplitude of 50 mA with an interval of 10 msec. • 3. The number and duration of hind limb tonic extension of the animal within 1 minute after the completion of the electrical stimulation was recorded, and the possible death and time of death were also recorded. • 4. After administration, the possible side effects induced by the drug were observed and recorded, and the side effects are divided into four levels: • None: Normal • Mild sedation • Moderate sedation • Severe sedation

Compound	activation at 3 µM [1] [%]	also measured
Cc1cc(N2CCCc3cc(O[C@H](C)C(F)(F)F)ccc3C2)cc(C)c1NC(=O)CC(C)(C)C [Compound 032, (R)—N-(2,6-dimethyl-4-(7-((1,1,1-trifluoropropan-2-yl)oxy)-1,3,4,5-tetrahydro-2H-benzo[c]azepin-2-yl)phenyl)-3,3-dimethylbutanamide]	> 100	activation at 0.05 µM [1]: 50 to 100%; V1/2 Shift (mV) (KCNQ2/3; test concentration 50 nM): −17.59 mV; Protection rate for tonic extension [2]: 100%
Cc1cc(N2CCCc3cc(OC4CCCC4)ccc3C2)cc(C)c1NC(=O)CC(C)(C)C [Compound 011, N-(4-(7-(cyclopentyloxy)-1,3,4,5-tetrahydro-2H-benzo[c]azepin-2-yl)-2,6-dimethylphenyl)-3,3-dimethylbutanamide]	> 100	activation at 0.05 µM [1]: > 100%; V1/2 Shift (mV) (KCNQ2/3; test concentration 50 nM): −2.92 mV; V1/2 Shift (mV) (KCNQ2/3; test concentration 300 nM): −21.98 mV; Protection rate for tonic extension [2]: 90%
CCC(C)Oc1ccc2c(c1)CCCN(c1cc(C)c(NC(=O)CC(C)(C)C)c(C)c1)C2 (stereo not drawn) [Compound 004, N-(4-(7-(sec-butoxy)-1,3,4,5-tetrahydro-2H-benzo[c]azepin-2-yl)-2,6-dimethylphenyl)-3,3-dimethylbutanamide]	> 100	activation at 0.05 µM [1]: < 50%; V1/2 Shift (mV) (KCNQ2/3; test concentration 50 nM): −11.76 mV; V1/2 Shift (mV) (KCNQ2/3; test concentration 300 nM): −23.56 mV
Cc1cc(N2CCCc3cc(OCC(C)C(F)(F)F)ccc3C2)cc(C)c1NC(=O)CC(C)(C)C (stereo not drawn) [Compound 053, N-(2,6-dimethyl-4-(7-(3,3,3-trifluoro-2-methylpropoxy)-1,3,4,5-tetrahydro-2H-benzo[c]azepin-2-yl)phenyl)-3,3-dimethylbutanamide]	> 100	
Cc1cc(N2CCCc3cc(OC(F)(F)F)ccc3C2)cc(C)c1NC(=O)CC(C)(C)C [Compound 006, N-(2,6-dimethyl-4-(7-(trifluoromethoxy)-1,3,4,5-tetrahydro-2H-benzo[c]azepin-2-yl)phenyl)-3,3-dimethylbutanamide]	> 100	
Cc1cc(N2CCC3(CC3)c3cc(F)c(F)cc3C2)cc(C)c1NC(=O)CC(C)(C)C [Compound 049, N-(4-(7,8-difluoro-3,4-dihydrospiro[benzo[c]azepine-5,1′-cyclopropan]-2(1H)-yl)-2,6-dimethylphenyl)-3,3-dimethylbutanamide]	> 100	
Cc1cc(N2CCCc3cc(OC4CCC(C(F)(F)F)CC4)ccc3C2)cc(C)c1NC(=O)CC(C)(C)C (stereo not drawn) [Compound 059, N-(2,6-dimethyl-4-(7-((4-(trifluoromethyl)cyclohexyl)oxy)-1,3,4,5-tetrahydro-2H-benzo[c]azepin-2-yl)phenyl)-3,3-dimethylbutanamide]	> 100	
Cc1cc(N2CCCc3cc(OCCC(F)(F)F)ccc3C2)cc(C)c1NC(=O)CC(C)(C)C [Compound 058, N-(2,6-dimethyl-4-(7-(3,3,3-trifluoropropoxy)-1,3,4,5-tetrahydro-2H-benzo[c]azepin-2-yl)phenyl)-3,3-dimethylbutanamide]	> 100	
CC[C@H](C)Oc1cc2c(cc1F)CN(c1cc(C)c(NC(=O)CC(C)(C)C)c(C)c1)CCC2 [Compound 040, (S)—N-(4-(7-(sec-butoxy)-8-fluoro-1,3,4,5-tetrahydro-2H-benzo[c]azepin-2-yl)-2,6-dimethylphenyl)-3,3-dimethylbutanamide]	> 100	
Cc1cc(N2CCCc3cc(O[C@H](C)C(F)(F)F)c(F)cc3C2)cc(C)c1NC(=O)CC(C)(C)C [Compound 037, (R)—N-(4-(8-fluoro-7-((1,1,1-trifluoropropan-2-yl)oxy)-1,3,4,5-tetrahydro-2H-benzo[c]azepin-2-yl)-2,6-dimethylphenyl)-3,3-dimethylbutanamide]	> 100	
Cc1cc(N2CCCc3cc(F)ccc3C2)c(C)c(C)c1NC(=O)CC(C)(C)C [Compound 030, N-(4-(7-fluoro-1,3,4,5-tetrahydro-2H-benzo[c]azepin-2-yl)-2,3,6-trimethylphenyl)-3,3-dimethylbutanamide]	50 to 100	
Cc1cc(N2CCS(=O)(=O)c3cc(F)ccc3C2)cc(C)c1NC(=O)CC(C)(C)C [Compound 026, N-(4-(8-fluoro-1,1-dioxido-2,3-dihydrobenzo[f][1,4]thiazepin-4(5H)-yl)-2,6-dimethylphenyl)-3,3-dimethylbutanamide]	> 100	
Cc1cc(N2CCCc3cc(F)c(F)cc3C2)cc(C)c1NC(=O)CC(C)(C)C [Compound 047, N-(4-(7,8-difluoro-1,3,4,5-tetrahydro-2H-benzo[c]azepin-2-yl)-2,6-dimethylphenyl)-3,3-dimethylbutanamide]	> 100	
Cc1cc(N2CCCc3cc(OCC(F)(F)C(F)F)ccc3C2)cc(C)c1NC(=O)CC(C)(C)C [Compound 057, N-(2,6-dimethyl-4-(7-(2,2,3,3-tetrafluoropropoxy)-1,3,4,5-tetrahydro-2H-benzo[c]azepin-2-yl)phenyl)-3,3-dimethylbutanamide]	> 100	
Cc1cc(N2CCCc3cc(OCCCC(F)(F)C(F)(F)F)ccc3C2)cc(C)c1NC(=O)CC(C)(C)C [Compound 061, N-(2,6-dimethyl-4-(7-((4,4,5,5,5-pentafluoropentyl)oxy)-1,3,4,5-tetrahydro-2H-benzo[c]azepin-2-yl)phenyl)-3,3-dimethylbutanamide]	> 100	
Cc1cc(N2CCCc3cc(OC4CCCCC4)c(F)cc3C2)cc(C)c1NC(=O)CC(C)(C)C [Compound 045, N-(4-(7-(cyclohexyloxy)-8-fluoro-1,3,4,5-tetrahydro-2H-benzo[c]azepin-2-yl)-2,6-dimethylphenyl)-3,3-dimethylbutanamide]	> 100	
Cc1cc(N2CCCc3cc(OCC(F)(F)CC(F)(F)F)ccc3C2)cc(C)c1NC(=O)CC(C)(C)C [Compound 062, N-(2,6-dimethyl-4-(7-(2,2,4,4,4-pentafluorobutoxy)-1,3,4,5-tetrahydro-2H-benzo[c]azepin-2-yl)phenyl)-3,3-dimethylbutanamide]	> 100	
